Patent US20210070748A1, “INHIBITORS OF BRUTONS TYROSINE KINASE” (Pharmacyclics LLC, priority 2015, published 2021)

How the values were obtained:
Type in all cases: biochemical
LCK = LCK (Homo sapiens, UniProt P06239); experiment: Inhibition of a panel of kinases, in vitro HotSpot kinase assay: LCK; conditions: D-compounds panel data; 1 μM ATP; read-out: IC50 LCK
EGFR = EGFR (Homo sapiens, UniProt P00533); experiment: Inhibition of a panel of kinases, in vitro HotSpot kinase assay: EGFR; conditions: D-compounds panel data; 1 μM ATP
Protocol: (§1) The degree of inhibition of a panel of kinases is determined using the in vitro HotSpot kinase assay (purified enzymes, ^33P-ATP, an appropriate substrate and 1 μM ATP).

TEC = biological target: T1, TEC (Homo sapiens, UniProt P42680); experiment: Inhibition of a panel of kinases, in vitro HotSpot kinase assay: TEC; conditions: D-compounds panel data; 1 μM ATP
T1 sequence (P42680 1-631): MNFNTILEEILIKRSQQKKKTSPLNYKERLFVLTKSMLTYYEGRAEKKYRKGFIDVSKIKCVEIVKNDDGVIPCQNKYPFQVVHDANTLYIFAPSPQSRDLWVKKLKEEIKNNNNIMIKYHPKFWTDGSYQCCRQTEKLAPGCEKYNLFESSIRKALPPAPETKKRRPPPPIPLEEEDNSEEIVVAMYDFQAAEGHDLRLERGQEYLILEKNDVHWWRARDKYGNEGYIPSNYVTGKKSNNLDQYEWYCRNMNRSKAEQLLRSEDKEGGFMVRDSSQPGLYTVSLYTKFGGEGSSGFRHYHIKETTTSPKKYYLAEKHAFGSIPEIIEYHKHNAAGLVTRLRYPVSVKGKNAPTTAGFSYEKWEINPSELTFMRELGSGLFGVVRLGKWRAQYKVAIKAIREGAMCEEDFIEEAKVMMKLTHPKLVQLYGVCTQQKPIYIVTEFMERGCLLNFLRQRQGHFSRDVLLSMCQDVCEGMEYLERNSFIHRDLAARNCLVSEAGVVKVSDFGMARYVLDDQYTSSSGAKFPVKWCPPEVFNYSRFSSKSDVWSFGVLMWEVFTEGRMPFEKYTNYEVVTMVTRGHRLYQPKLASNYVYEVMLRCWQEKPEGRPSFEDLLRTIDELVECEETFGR
Protocol: as §1

JAK3 = biological target: T2, JAK3 (Homo sapiens, UniProt P52333); experiment: Inhibition of a panel of kinases, in vitro HotSpot kinase assay: JAK3; conditions: D-compounds panel data; 1 μM ATP; read-out: IC50 JAK3
T2 sequence (P52333 1-1124): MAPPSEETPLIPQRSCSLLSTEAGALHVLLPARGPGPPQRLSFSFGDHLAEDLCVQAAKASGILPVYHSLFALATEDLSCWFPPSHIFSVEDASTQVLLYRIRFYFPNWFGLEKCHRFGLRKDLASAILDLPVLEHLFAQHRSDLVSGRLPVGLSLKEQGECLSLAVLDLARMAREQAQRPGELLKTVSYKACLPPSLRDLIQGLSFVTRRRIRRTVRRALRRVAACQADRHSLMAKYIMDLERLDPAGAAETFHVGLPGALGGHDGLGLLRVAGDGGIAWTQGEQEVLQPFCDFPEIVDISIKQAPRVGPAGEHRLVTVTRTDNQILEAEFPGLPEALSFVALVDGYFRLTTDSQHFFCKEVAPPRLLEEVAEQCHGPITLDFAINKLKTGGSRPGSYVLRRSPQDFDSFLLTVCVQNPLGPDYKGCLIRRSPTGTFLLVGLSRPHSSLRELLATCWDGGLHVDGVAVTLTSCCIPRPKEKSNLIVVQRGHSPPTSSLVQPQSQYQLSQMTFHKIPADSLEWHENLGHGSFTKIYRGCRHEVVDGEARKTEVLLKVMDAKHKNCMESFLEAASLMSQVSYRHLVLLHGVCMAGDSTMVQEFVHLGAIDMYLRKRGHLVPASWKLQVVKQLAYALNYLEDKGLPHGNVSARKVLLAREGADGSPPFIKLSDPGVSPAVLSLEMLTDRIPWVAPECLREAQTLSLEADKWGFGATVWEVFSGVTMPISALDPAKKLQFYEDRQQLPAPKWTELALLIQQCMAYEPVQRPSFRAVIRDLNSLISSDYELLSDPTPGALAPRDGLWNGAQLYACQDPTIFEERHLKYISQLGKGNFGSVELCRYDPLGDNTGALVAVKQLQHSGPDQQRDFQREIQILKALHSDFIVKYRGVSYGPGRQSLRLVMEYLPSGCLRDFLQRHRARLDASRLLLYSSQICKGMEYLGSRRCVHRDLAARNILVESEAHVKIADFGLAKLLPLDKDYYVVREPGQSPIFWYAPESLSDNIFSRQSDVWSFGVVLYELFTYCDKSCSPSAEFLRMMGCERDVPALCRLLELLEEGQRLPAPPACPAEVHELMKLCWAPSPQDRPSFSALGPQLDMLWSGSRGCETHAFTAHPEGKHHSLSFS

Sequence of EGFR (P00533 25-1210): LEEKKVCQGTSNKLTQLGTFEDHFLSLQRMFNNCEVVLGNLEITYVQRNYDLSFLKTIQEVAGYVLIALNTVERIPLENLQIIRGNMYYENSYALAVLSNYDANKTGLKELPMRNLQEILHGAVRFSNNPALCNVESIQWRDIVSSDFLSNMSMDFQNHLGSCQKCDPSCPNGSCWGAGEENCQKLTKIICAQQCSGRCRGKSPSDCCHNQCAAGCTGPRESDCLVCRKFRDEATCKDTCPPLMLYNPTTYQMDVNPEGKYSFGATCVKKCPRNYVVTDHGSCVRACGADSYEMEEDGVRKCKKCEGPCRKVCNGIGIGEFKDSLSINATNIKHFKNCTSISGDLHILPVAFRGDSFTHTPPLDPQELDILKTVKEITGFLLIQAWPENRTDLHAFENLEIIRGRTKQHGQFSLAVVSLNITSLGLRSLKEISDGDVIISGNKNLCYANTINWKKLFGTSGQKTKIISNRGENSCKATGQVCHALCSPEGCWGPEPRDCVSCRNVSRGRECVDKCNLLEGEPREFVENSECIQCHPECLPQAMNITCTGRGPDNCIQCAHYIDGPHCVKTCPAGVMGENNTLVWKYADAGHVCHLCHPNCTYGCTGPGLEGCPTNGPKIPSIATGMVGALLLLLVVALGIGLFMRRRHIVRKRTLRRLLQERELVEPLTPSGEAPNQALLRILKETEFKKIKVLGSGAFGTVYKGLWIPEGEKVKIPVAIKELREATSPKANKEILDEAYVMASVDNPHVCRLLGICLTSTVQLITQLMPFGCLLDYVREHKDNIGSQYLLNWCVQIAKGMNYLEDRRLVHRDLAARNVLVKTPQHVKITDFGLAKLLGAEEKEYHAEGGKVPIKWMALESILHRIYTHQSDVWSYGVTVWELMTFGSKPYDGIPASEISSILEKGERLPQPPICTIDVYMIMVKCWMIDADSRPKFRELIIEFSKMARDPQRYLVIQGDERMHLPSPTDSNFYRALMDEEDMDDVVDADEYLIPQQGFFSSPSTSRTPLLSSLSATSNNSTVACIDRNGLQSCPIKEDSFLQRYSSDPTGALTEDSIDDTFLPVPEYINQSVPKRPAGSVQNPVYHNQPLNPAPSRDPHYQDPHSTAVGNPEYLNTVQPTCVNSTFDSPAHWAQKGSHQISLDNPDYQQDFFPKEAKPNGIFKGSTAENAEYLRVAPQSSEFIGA
Sequence of LCK (P06239 whole entry): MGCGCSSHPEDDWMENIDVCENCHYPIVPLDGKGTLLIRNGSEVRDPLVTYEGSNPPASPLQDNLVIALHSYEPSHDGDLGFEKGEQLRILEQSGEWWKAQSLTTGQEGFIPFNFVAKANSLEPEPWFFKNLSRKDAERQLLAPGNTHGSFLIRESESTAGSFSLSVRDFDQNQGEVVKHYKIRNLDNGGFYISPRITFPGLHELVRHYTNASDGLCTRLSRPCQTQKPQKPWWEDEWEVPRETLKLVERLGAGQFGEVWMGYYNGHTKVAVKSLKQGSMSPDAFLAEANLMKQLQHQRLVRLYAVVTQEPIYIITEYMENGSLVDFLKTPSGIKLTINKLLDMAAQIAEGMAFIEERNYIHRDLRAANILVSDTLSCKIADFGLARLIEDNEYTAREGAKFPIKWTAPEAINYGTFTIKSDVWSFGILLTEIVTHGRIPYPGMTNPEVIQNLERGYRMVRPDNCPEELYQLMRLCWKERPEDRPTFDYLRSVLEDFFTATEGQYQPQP

Structure (SMILES) | IC50 (LCK) | IC50 (EGFR) | IC50 (TEC) | IC50 (JAK3)
Cc1cc(Nc2nc(N3CCC[C@@H](c4ncc(-c5ccccc5)[nH]4)C3)cnc2C(N)=O)sn1 [Example D-171, 3-[(3-methyl-1,2-thiazol-5-yl)amino]-5-[(3R)-3-(5-phenyl-1H-imidazol-2-yl)piperidin-1-yl]pyrazine-2-carboxamide] | 100 to 1000 nM | > 10000 nM | 100 to 1000 nM | 100 to 1000 nM
Cc1cc(Nc2nc(N3CCC[C@H](c4ncc(-c5ccccc5)[nH]4)C3)cnc2C(N)=O)sn1 [Example D-172, 3-[(3-methyl-1,2-thiazol-5-yl)amino]-5-[(3S)-3-(5-phenyl-1H-imidazol-2-yl)piperidin-1-yl]pyrazine-2-carboxamide] | 100 to 1000 nM | 10 to 100 nM | 100 to 1000 nM | 100 to 1000 nM
CC1(c2ccc(Nc3nc(N4CCC[C@@H](n5ccc6cc(C7CC7)ccc6c5=O)C4)cnc3C(N)=O)cc2)CCN(C2CCCC2)CC1 [Example D-177, 3-{[4-(1-cyclopentyl-4-methylpiperidin-4-yl)phenyl]amino}-5-[(3R)-3-(6-cyclopropyl-1-oxo-1,2-dihydroisoquinolin-2-yl)piperidin-1-yl]pyrazine-2-carboxamide] | 10 to 100 nM | 100 to 1000 nM | ≤ 10 nM | 100 to 1000 nM
C[C@@H]1[C@H](NC(=O)c2ccc(N(C)C)cc2)CCCN1c1cnc(C(N)=O)c(Nc2ccc(C3(C)CCN(C4CCCC4)CC3)cc2)n1 [Example D-183, 3-{[4-(1-cyclopentyl-4-methylpiperidin-4-yl)phenyl]amino}-5-[(2R,3R)-3-[4-(dimethylamino)benzamido]-2-methylpiperidin-1-yl]pyrazine-2-carboxamide] | 10 to 100 nM | 100 to 1000 nM | 10 to 100 nM | 100 to 1000 nM
Cn1cc(Nc2nc(N3CCC[C@@H](n4ccc5cc(C6CC6)ccc5c4=O)C3)cnc2C(N)=O)cn1 [Example D-184, 5-[(3R)-3-(6-cyclopropyl-1-oxo-1,2-dihydroisoquinolin-2-yl)piperidin-1-yl]-3-[(1-methyl-1H-pyrazol-4-yl)amino]pyrazine-2-carboxamide] | 1000 to 10000 nM | > 10000 nM | 10 to 100 nM | > 10000 nM
Cc1cc(Nc2nc(N3CCC[C@@H](c4ncc(-c5ccc(C6CC6)cc5)[nH]4)[C@H]3C)cnc2C(N)=O)sn1 [Example D-186, 5-[(2R,3R)-3-[5-(4-cyclopropylphenyl)-1H-imidazol-2-yl]-2-methylpiperidin-1-yl]-3-[(3-methyl-1,2-thiazol-5-yl)amino]pyrazine-2-carboxamide] | 1000 to 10000 nM | 1000 to 10000 nM | 100 to 1000 nM | 1000 to 10000 nM

More lines, now with the values ahead:

IC50 (LCK) | IC50 (EGFR) | IC50 (TEC) | IC50 (JAK3) | Structure (SMILES)
10 to 100 nM | 100 to 1000 nM | 10 to 100 nM | 100 to 1000 nM | C[C@@H]1[C@H](NC(=O)c2ccc(C3CC3)cc2F)CCCN1c1cnc(C(N)=O)c(Nc2cc(CN3CCOCC3)ns2)n1 [Example D-173, 5-[(2R,3R)-3-(4-cyclopropyl-2-fluorobenzamido)-2-methylpiperidin-1-yl]-3-{[3-(morpholin-4-ylmethyl)-1,2-thiazol-5-yl]amino}pyrazine-2-carboxamide]
100 to 1000 nM | 100 to 1000 nM | 10 to 100 nM | 100 to 1000 nM | CN1CCN(c2ccc(Nc3nc(N4CCC[C@@H](n5ccc6cc(C7CC7)cc(F)c6c5=O)C4)cnc3C(N)=O)cc2)CC1 [Example D-174, 5-[(3R)-3-(6-cyclopropyl-8-fluoro-1-oxo-1,2-dihydroisoquinolin-2-yl)piperidin-1-yl]-3-{[4-(4-methylpiperazin-1-yl)phenyl]amino}pyrazine-2-carboxamide]
1000 to 10000 nM | 1000 to 10000 nM | 1000 to 10000 nM | 1000 to 10000 nM | Cc1cc(Nc2cc(N3CCC[C@@H](NC(=O)N(C)C)[C@H]3C)cnc2C(N)=O)sn1 [Example D-175, 5-[(2R,3R)-3-[(dimethylcarbamoyl)amino]-2-methylpiperidin-1-yl]-3-[(3-methyl-1,2-thiazol-5-yl)amino]pyridine-2-carboxamide]
10 to 100 nM | > 10000 nM | 10 to 100 nM | 100 to 1000 nM | C[C@@H]1[C@H](NC(=O)c2ccc(C3CC3)cc2F)CCCN1c1cnc(C(N)=O)c(Nc2cc(CN3CCCCC3)ns2)n1 [Example D-176, 5-[(2R,3R)-3-(4-cyclopropyl-2-fluorobenzamido)-2-methylpiperidin-1-yl]-3-{[3-(piperidin-1-ylmethyl)-1,2-thiazol-5-yl]amino}pyrazine-2-carboxamide]
1000 to 10000 nM | > 10000 nM | 1000 to 10000 nM | > 10000 nM | CN1CCN(c2ccc(Nc3cc(N4CCC[C@@H](n5ccc6cc(C7CC7)ccc6c5=O)C4)cnc3C(N)=O)cc2)CC1 [Example D-178, 5-[(3R)-3-(6-cyclopropyl-1-oxo-1,2-dihydroisoquinolin-2-yl)piperidin-1-yl]-3-{[4-(4-methylpiperazin-1-yl)phenyl]amino}pyridine-2-carboxamide]
> 10000 nM | > 10000 nM | 1000 to 10000 nM | > 10000 nM | CN1CCN(c2ccc(Nc3nc(N4CCC[C@@H](n5ccc6cc(C7CC7)ccc6c5=O)C4)cnc3C(N)=O)nc2)CC1 [Example D-179, 5-[(3R)-3-(6-cyclopropyl-1-oxo-1,2-dihydroisoquinolin-2-yl)piperidin-1-yl]-3-{[5-(4-methylpiperazin-1-yl)pyridin-2-yl]amino}pyrazine-2-carboxamide]
> 10000 nM | 1000 to 10000 nM | > 10000 nM | > 10000 nM | C[C@@H]1[C@H](NC(=O)N(C)C)CCCN1c1cnc(C(N)=O)c(Nc2ccc(N3CCN(C)CC3)cn2)n1 [Example D-180, 5-[(2R,3R)-3-[(dimethylcarbamoyl)amino]-2-methylpiperidin-1-yl]-3-{[5-(4-methylpiperazin-1-yl)pyridin-2-yl]amino}pyrazine-2-carboxamide]
100 to 1000 nM | 100 to 1000 nM | 10 to 100 nM | 100 to 1000 nM | Cc1cc(Nc2nc(N3C[C@H](NC(=O)c4ccc(C5CC5)cc4F)CC[C@@H]3C)cnc2C(N)=O)sn1 [Example D-181, 5-[(2S,5R)-5-(4-cyclopropyl-2-fluorobenzamido)-2-methylpiperidin-1-yl]-3-[(3-methyl-1,2-thiazol-5-yl)amino]pyrazine-2-carboxamide]
10 to 100 nM | 100 to 1000 nM | 100 to 1000 nM | 100 to 1000 nM | C[C@@H]1[C@H](NC(=O)N(C)C)CCCN1c1cnc(C(N)=O)c(Nc2ccc(N3CCN(C4CCCC4)CC3)cc2)n1 [Example D-182, 3-{[4-(4-cyclopentylpiperazin-1-yl)phenyl]amino}-5-[(2R,3R)-3-[(dimethylcarbamoyl)amino]-2-methylpiperidin-1-yl]pyrazine-2-carboxamide]
10 to 100 nM | 100 to 1000 nM | 10 to 100 nM | 1000 to 10000 nM | C[C@@H]1[C@H](NC(=O)c2ccc(C3CC3)cc2)CCCN1c1cnc(C(N)=O)c(Nc2cnn(C3CCN(C)CC3)c2)n1 [Example D-185, 5-[(2R,3R)-3-(4-cyclopropylbenzamido)-2-methylpiperidin-1-yl]-3-{[1-(1-methylpiperidin-4-yl)-1H-pyrazol-4-yl]amino}pyrazine-2-carboxamide]
